Assays:
Type in all cases: in vivo
[1] = test system: Myzus persicae (green peach aphid); test: Example B4: Activity against Myzus persicae (green peach aphid), feeding/contact activity; conditions: foliar, 144 h, application rate 200 ppm, sunflower leaf discs sprayed, aphid population of mixed ages, 6 days after infestation
Procedure: Example B4: Activity Against Myzus persicae (Green Peach Aphid) Feeding/Contact Activity
Sunflower leaf discs were placed onto agar in a 24-well microtiter plate and sprayed with aqueous test solutions prepared from 10,000 ppm DMSO stock solutions. After drying, the leaf discs were infested with an aphid population of mixed ages. The samples were assessed for mortality 6 days after infestation.

[2] = test system: Spodoptera littoralis (Egyptian cotton leaf worm); test: Example B6: Activity against Spodoptera littoralis (Egyptian cotton leaf worm); conditions: foliar, 72 h, application rate 200 ppm, cotton leaf discs sprayed, L1 larvae, 3 days after infestation, read-out: control (mortality, anti-feeding effect or growth inhibition)
Procedure: Example B6: Activity Against Spodoptera littoralis (Egyptian Cotton Leaf Worm)
Cotton leaf discs were placed onto agar in 24-well microtiter plates and sprayed with aqueous test solutions prepared from 10,000 ppm DMSO stock solutions. After drying the leaf discs were infested with five L1 larvae. The samples were assessed for mortality, anti-feeding effect, and growth inhibition in comparison to untreated samples 3 days after infestation. Control of Spodoptera littoralis by a test sample is given when at least one of the categories mortality, anti-feedant effect, and growth inhibition is higher than the untreated sample.

[3] = test system: Euschistus heros (neotropical brown stink bug); test: Example B2: Activity against Euschistus heros (neotropical brown stink bug); conditions: 120 h, application rate 200 ppm, soybean leaves sprayed, N2 nymphs, 5 days after infestation, read-out: effect in at least one of the two categories (mortality or growth inhibition)
Procedure: Example B2: Activity Against Euschistus heros (Neotropical Brown Stink Bug)
Soybean leaves on agar in 24-well microtiter plates were sprayed with aqueous test solutions prepared from 10,000 ppm DMSO stock solutions. After drying the leaves were infested with N2 nymphs. The samples were assessed for mortality and growth inhibition in comparison to untreated samples 5 days after infestation.

[4] = test system: Chilo suppressalis (striped rice stemborer); test: Example B8: Activity against Chilo suppressalis (striped rice stemborer); conditions: 144 h, application rate 200 ppm, artificial diet treated by pipetting, L2 larvae, 6 days after infestation, read-out: control (mortality, anti-feeding effect or growth inhibition)
Procedure: Example B8: Activity Against Chilo suppressalis (Striped Rice Stemborer)
24-well microtiter plates with artificial diet were treated with aqueous test solutions prepared from 10,000 ppm DMSO stock solutions by pipetting. After drying, the plates were infested with L2 larvae (6-8 per well). The samples were assessed for mortality, anti-feeding effect, and growth inhibition in comparison to untreated samples 6 days after infestation. Control of Chilo suppressalis by a test sample is given when at least one of the categories mortality, anti-feedant effect, and growth inhibition is higher than the untreated sample.

[5] = test system: Diabrotica balteata (corn root worm); test: Example B1: Activity against Diabrotica balteata (corn root worm); conditions: 96 h, application rate 200 ppm, maize sprouts sprayed, L2 larvae, 4 days after infestation, read-out: effect in at least one of the two categories (mortality or growth inhibition)
Procedure: Example B1: Activity Against Diabrotica Balteata (Corn Root Worm)
Maize sprouts placed onto an agar layer in 24-well microtiter plates were treated with aqueous test solutions prepared from 10,000 ppm DMSO stock solutions by spraying. After drying, the plates were infested with L2 larvae (6 to 10 per well). The samples were assessed for mortality and growth inhibition in comparison to untreated samples 4 days after infestation.

[6] = test system: Plutella xylostella (diamond back moth); test: Example B5: Activity against Plutella xylostella (diamond back moth); conditions: 192 h, application rate 200 ppm, artificial diet treated by pipetting, eggs, 8 days after infestation, read-out: effect in at least one of the two categories (mortality or growth inhibition)
Procedure: Example B5: Activity Against Plutella xylostella (Diamond Back Moth)
24-well microtiter plates with artificial diet were treated with aqueous test solutions prepared from 10,000 ppm DMSO stock solutions by pipetting. After drying, Plutella eggs were pipetted through a plastic stencil onto a gel blotting paper and the plate was closed with it. The samples were assessed for mortality and growth inhibition in comparison to untreated samples 8 days after infestation. The following compounds gave an effect of at least 80% in at least one of the two categories (mortality or growth inhibition) at an application rate of 200 ppm: P1, P2, P4, P5, P6, P7, P9, P10, P11, P12, P13, P14, P15, P16, P17, P18.

[7] = test system: Myzus persicae (green peach aphid); test: Example B9: Activity against Myzus persicae (green peach aphid), systemic activity; conditions: 144 h, test rate 24 ppm, roots of infested pea seedlings placed into test solution, 6 days
Procedure: Example B9: Activity Against Myzus persicae (Green Peach Aphid). Systemic Activity
Roots of pea seedlings infested with an aphid population of mixed ages were placed directly into aqueous test solutions prepared from 10,000 DMSO stock solutions. The samples were assessed for mortality 6 days after placing seedlings into test solutions.

CCS(=O)(=O)c1c(N2Cc3ncc(C(F)(F)F)cc3C2=O)nc(-c2cnn(C3CC3)c2)n1C [Compound P2, 6-[2-(1-cyclopropylpyrazol-4-yl)-5-ethylsulfonyl-1-methyl-imidazol-4-yl]-3-(trifluoromethyl)-7H-pyrrolo[3,4-b]pyridin-5-one]
≥ 80%: mortality at 200 ppm [1] | control at 200 ppm [2] | percent effect (mortality or growth inhibition) at 200 ppm [3] | control at 200 ppm [4] | mortality or growth inhibition at 200 ppm [5] | effect (mortality or growth inhibition) at 200 ppm [6] | mortality at 24 ppm [7]

CCS(=O)(=O)c1c(N2Cc3ncc(C(F)(F)F)cc3C2=O)nc(C2CC(C3CC3)=NO2)n1C (stereo not shown) [Compound P3, 6-[2-(3-cyclopropyl-4,5-dihydroisoxazol-5-yl)-5-ethylsulfonyl-1-methyl-imidazol-4-yl]-3-(trifluoromethyl)-7H-pyrrolo[3,4-b]pyridin-5-one]
≥ 80%: control at 200 ppm [4]

CCS(=O)(=O)c1c(N2Cc3ncc(C(F)(F)F)cc3C2=O)nc(-c2cnn(CC3(C#N)CC3)c2)n1C [Compound P4, 1-[[4-[5-ethylsulfonyl-1-methyl-4-[5-oxo-3-(trifluoromethyl)-7H-pyrrolo[3,4-b]pyridin-6-yl]imidazol-2-yl]pyrazol-1-yl]methyl]cyclopropane-carbonitrile]
≥ 80%: mortality at 200 ppm [1] | percent effect (mortality or growth inhibition) at 200 ppm [3] | control at 200 ppm [4] | effect (mortality or growth inhibition) at 200 ppm [6] | mortality at 24 ppm [7]

CCS(=O)(=O)c1c(N2Cc3ncc(C(F)(F)F)cc3C2=O)nc(-c2cnn(CC(F)F)c2)n1C [Compound P5, 6-[2-[1-(2,2-difluoroethyl)pyrazol-4-yl]-5-ethylsulfonyl-1-methyl-imidazol-4-yl]-3-(trifluoromethyl)-7H-pyrrolo[3,4-b]pyridin-5-one]
≥ 80%: mortality at 200 ppm [1] | control at 200 ppm [2] | percent effect (mortality or growth inhibition) at 200 ppm [3] | control at 200 ppm [4] | effect (mortality or growth inhibition) at 200 ppm [6] | mortality at 24 ppm [7]

CCS(=O)(=O)c1c(N2Cc3ncc(C(F)(F)F)cc3C2=O)nc(OCC(F)(F)F)n1C [Compound P6, 6-[5-ethylsulfonyl-1-methyl-2-(2,2,2-trifluoroethoxy)imidazol-4-yl]-3-(trifluoromethyl)-7H-pyrrolo[3,4-b]pyridin-5-one]
≥ 80%: mortality at 200 ppm [1] | control at 200 ppm [2] | control at 200 ppm [4] | mortality or growth inhibition at 200 ppm [5] | effect (mortality or growth inhibition) at 200 ppm [6] | mortality at 24 ppm [7]

CCS(=O)(=O)c1c(N2Cc3ccc(OC(F)(F)F)cc3C2=O)nc(-c2cncnc2)n1C [Compound P7, 2-(5-ethylsulfonyl-1-methyl-2-pyrimidin-5-yl-imidazol-4-yl)-6-(trifluoromethoxy)isoindolin-1-one]
≥ 80%: control at 200 ppm [2] | control at 200 ppm [4] | effect (mortality or growth inhibition) at 200 ppm [6]

CCS(=O)(=O)c1c(N2Cc3ncc(C(F)(F)F)cc3C2=O)nc(-c2cncnc2)n1C [Compound P8, 6-(5-ethylsulfonyl-1-methyl-2-pyrimidin-5-yl-imidazol-4-yl)-3-(trifluoromethyl)-7H-pyrrolo[3,4-b]pyridin-5-one]
≥ 80%: mortality at 24 ppm [7]

CCS(=O)(=O)c1c(N2Cc3ncc(C(F)(F)F)cc3C2=O)nc(-c2cnn(CC3CC3)c2)n1C [Compound P9, 6-[2-[1-(cyclopropylmethyl)pyrazol-4-yl]-5-ethylsulfonyl-1-methyl-imidazol-4-yl]-3-(trifluoromethyl)-7H-pyrrolo[3,4-b]pyridin-5-one]
≥ 80%: mortality at 200 ppm [1] | control at 200 ppm [2] | percent effect (mortality or growth inhibition) at 200 ppm [3] | control at 200 ppm [4] | mortality or growth inhibition at 200 ppm [5] | effect (mortality or growth inhibition) at 200 ppm [6] | mortality at 24 ppm [7]

CCS(=O)(=O)c1c(N2Cc3ccc(OC(F)(F)F)cc3C2=O)nc(-c2ncccn2)n1C [Compound P11, 2-(5-ethylsulfonyl-1-methyl-2-pyrimidin-2-yl-imidazol-4-yl)-6-(trifluoromethoxy)isoindolin-1-one]
≥ 80%: mortality at 200 ppm [1] | percent effect (mortality or growth inhibition) at 200 ppm [3] | control at 200 ppm [4] | mortality or growth inhibition at 200 ppm [5] | effect (mortality or growth inhibition) at 200 ppm [6] | mortality at 24 ppm [7]

CCS(=O)(=O)c1c(N2Cc3ncc(C(F)(F)F)cc3C2=O)nc(-c2ncccn2)n1C [Compound P12, 6-(5-ethylsulfonyl-1-methyl-2-pyrimidin-2-yl-imidazol-4-yl)-3-(trifluoromethyl)-7H-pyrrolo[3,4-b]pyridin-5-one]
≥ 80%: mortality at 200 ppm [1] | percent effect (mortality or growth inhibition) at 200 ppm [3] | control at 200 ppm [4] | mortality or growth inhibition at 200 ppm [5] | effect (mortality or growth inhibition) at 200 ppm [6] | mortality at 24 ppm [7]

CCS(=O)(=O)c1c(N2Cc3ncc(C(F)(F)F)cc3C2=O)nc(-n2cc(C(F)(F)F)cn2)n1C [Compound P14, 6-[5-ethylsulfonyl-1-methyl-2-[4-(trifluoromethyl)pyrazol-1-yl]imidazol-4-yl]-3-(trifluoromethyl)-7H-pyrrolo[3,4-b]pyridin-5-one]
≥ 80%: mortality at 200 ppm [1] | control at 200 ppm [2] | percent effect (mortality or growth inhibition) at 200 ppm [3] | control at 200 ppm [4] | mortality or growth inhibition at 200 ppm [5] | effect (mortality or growth inhibition) at 200 ppm [6]

CCS(=O)(=O)c1c(N2Cc3ncc(C(F)(F)F)cc3C2=O)nc(-n2ccc(C3CC3)n2)n1C [Compound P15, 6-[2-(3-cyclopropylpyrazol-1-yl)-5-ethylsulfonyl-1-methyl-imidazol-4-yl]-3-(trifluoromethyl)-7H-pyrrolo[3,4-b]pyridin-5-one]
≥ 80%: mortality at 200 ppm [1] | control at 200 ppm [2] | percent effect (mortality or growth inhibition) at 200 ppm [3] | mortality or growth inhibition at 200 ppm [5] | effect (mortality or growth inhibition) at 200 ppm [6]

CCS(=O)(=O)c1c(N2Cc3ncc(C(F)(F)F)cc3C2=O)nc(-n2ccc(Cl)n2)n1C [Compound P16, 6-[2-(3-chloropyrazol-1-yl)-5-ethylsulfonyl-1-methyl-imidazol-4-yl]-3-(trifluoromethyl)-7H-pyrrolo[3,4-b]pyridin-5-one]
≥ 80%: mortality at 200 ppm [1] | control at 200 ppm [2] | percent effect (mortality or growth inhibition) at 200 ppm [3] | control at 200 ppm [4] | mortality or growth inhibition at 200 ppm [5] | effect (mortality or growth inhibition) at 200 ppm [6]

CCS(=O)(=O)c1c(N2Cc3ncc(C(F)(F)F)cc3C2=O)nc(-c2ccc(C3(C#N)CC3)cc2)n1C [Compound P18, 1-[4-[5-ethylsulfonyl-1-methyl-4-[5-oxo-3-(trifluoromethyl)-7H-pyrrolo[3,4-b]pyridin-6-yl]imidazol-2-yl]phenyl]cyclopropane-carbonitrile]
≥ 80%: mortality at 200 ppm [1] | control at 200 ppm [2] | control at 200 ppm [4] | mortality or growth inhibition at 200 ppm [5] | effect (mortality or growth inhibition) at 200 ppm [6]
